The source of these data is patent US4818770A, “Prevention of a plant disease by specific inhibition of fungal polyamine biosynthesis” (priority 1986, dated 1989).

Each structure is given as a SMILES string.

The subject of this assay is U. phaseoli. The assay is described as follows: Bean rust severity after DFMO and polyamines alone or combined. In kind it is in vivo, Uromyces phaseoli. Particulars: for Lesions per cm^2 / Lesions per leaf / Lesions per leaf, percent of control: postinoculation.

With `NCCCCN` [Put, putrescine], the “reduction of number of lesions” value (1 mM Put alone) is given as “about one-third”. Moreover, under “polyamine alone 0.01 mM”, the “Lesions per cm^2” value was 57 ± 2 per cm^2; the Lesions per leaf turned out to be 4013 ± 264 per leaf; the “Lesions per leaf, percent of control” value is on record as 98% of control. Moreover, where the note is “polyamine alone 0.1 mM”, the “Lesions per cm^2” value stood at 54 ± 5 per cm^2; the Lesions per leaf amounted to 3189 ± 478 per leaf; the “Lesions per leaf, percent of control” value is recorded as 78% of control. Under “polyamine alone 1.0 mM”, the “Lesions per cm^2” value was 44 ± 9 per cm^2; the Lesions per leaf worked out at 2698 ± 260 per leaf; the “Lesions per leaf, percent of control” value is 66% of control.
In the case of `NCCCCNCCCN` [Spd, spermidine], for the setting “polyamine alone 0.01 mM”, the “Lesions per cm^2” value is 56 ± 5 per cm^2; the Lesions per leaf is given as 3209 ± 360 per leaf; the “Lesions per leaf, percent of control” value is given as 78% of control. Further, for the setting “polyamine alone 0.1 mM”, the “Lesions per cm^2” value is given as 58 ± 6 per cm^2; the Lesions per leaf is recorded as 3416 ± 457 per leaf; the “Lesions per leaf, percent of control” value is on record as 83% of control. For the setting “polyamine alone 1.0 mM”, the “Lesions per cm^2” value was determined as 50 ± 10 per cm^2; the Lesions per leaf came out at 3926 ± 358 per leaf; the “Lesions per leaf, percent of control” value is 96% of control.
